Drawing on ChEMBL document CHEMBL2016508, “Synthesis and biological activity of bi/tricyclic azasugars fused thiazolidin-4-one and thiazinan-4-one by microwave-assisted tandem Staudinger/aza-Wittig/cyclization” (2012), this text covers inhibition and Activity for 16 compounds.

The source made the active and inactive calls. No cut-off for these calls is given here.

One assay deals with Saccharomyces cerevisiae. Put plainly: Inhibition of yeast alpha-glucosidase using PNPG as substrate at 100 uM preincubated for 10 mins prior substrate addition measured after 10 mins by UV-Vis spectrophotometry.
Assay [1] has as its system T-cell. Kind of assay: Effect on proliferation of Balb/C mouse T cells at 50 uM after 72 hrs by MTT assay. Type of assay: functional, cell-based.
The next assay has as its system Prunus dulcis. Put plainly: Inhibition of almonds beta-glucosidase using D-(-)salicin as substrate at 100 uM preincubated for 10 mins prior substrate addition measured after 10 mins by UV-Vis spectrophotometry.
In assay [2] the test system is YAC-1. Kind of assay: Immunopotentiating activity in Balb/C mouse NK cells assessed as induction of killing activity against YAC-1 cells at 50 uM after 4 hrs by MTT assay. Type of assay: functional.
Assay [3] deals with YAC-1. Put plainly: Immunopotentiating activity in Balb/C mouse NK cells assessed as induction of killing activity against YAC-1 cells at 5 uM after 4 hrs by MTT assay. Type of assay: functional.
Assay [4] relates to T-cell. Kind of assay: Effect on proliferation of Balb/C mouse T cells at 5 uM after 72 hrs by MTT assay. Type of assay: functional, cell-based.
The next assay deals with Bacillaceae. Put plainly: Inhibition of Bacillaceae alpha-amylase using starch as substrate at 100 uM preincubated for 10 mins prior substrate addition measured after 10 mins by UV-Vis spectrophotometry.

Consider `O=C1CS[C@H]2[C@H](O)[C@H](O)[C@H](O)CN12`, for which the inhibition entry with Saccharomyces cerevisiae and in the assay on Bacillaceae was “inactive” each time. The outcome in the assay with T-cell [1], in the assay with YAC-1 [2], in the assay with YAC-1 [3] and with T-cell [4] was inactive. Further, the inhibition in the assay with Prunus dulcis amounted to 23%.
In the case of `O=C1CCS[C@H]2[C@@H](O)[C@@H](O)[C@H](O)CN12`, the inhibition result in the assay on Saccharomyces cerevisiae, with Prunus dulcis and with Bacillaceae was “inactive” in each case. Also, the outcome with T-cell [1] and in the assay on T-cell [4] was inactive. Moreover, the Activity in the assay on YAC-1 [2] is recorded as 45%; in the assay on YAC-1 [3] it was 69%.
As to `O=C1c2ccccc2S[C@@H]2[C@H](O)[C@H](O)[C@H](O)CN12`, the inhibition entry with Saccharomyces cerevisiae, in the assay on Prunus dulcis and with Bacillaceae was “inactive” each time. Moreover, the result with T-cell [1], with YAC-1 [2], with YAC-1 [3] and in the assay with T-cell [4] was inactive.
Turning to `O=C1CS[C@H]2[C@@H](O)[C@@H](O)[C@H](O)CN12`, the inhibition result in the assay on Saccharomyces cerevisiae and in the assay with Bacillaceae was “inactive” each time. For the same compound, the result in the assay on T-cell [1] and in the assay on T-cell [4] was inactive. Further, the inhibition with Prunus dulcis is 19%. Besides, the Activity stood at 93% in the assay with YAC-1 [2] and 72% in the assay on YAC-1 [3].
Regarding `O=C1c2ccccc2S[C@@H]2[C@@H](O)[C@@H](O)[C@H](O)CN12`, the inhibition result in the assay with Saccharomyces cerevisiae, in the assay on Prunus dulcis and in the assay on Bacillaceae was “inactive” in each case. In addition, the outcome in the assay with T-cell [1], in the assay with YAC-1 [2], with YAC-1 [3] and in the assay with T-cell [4] was inactive.
Consider `O=C1CCS[C@H]2[C@H](O)[C@H](O)[C@H](O)CN12`, for which the inhibition entry in the assay on Saccharomyces cerevisiae and with Bacillaceae was “inactive” in each case. Besides, the result in the assay on T-cell [1], in the assay with YAC-1 [2], in the assay on YAC-1 [3] and in the assay on T-cell [4] was inactive. The inhibition in the assay on Prunus dulcis is 18%.
For the compound `O=C1c2cccnc2S[C@H]2[C@@H](O)[C@@H](O)[C@H](O)CN12`, the inhibition entry in the assay with Saccharomyces cerevisiae and in the assay on Bacillaceae was “inactive” in each case. In addition, the outcome in the assay on T-cell [1] and with T-cell [4] was inactive. In addition, in the assay with Prunus dulcis, the inhibition turned out to be 35%. Also, the figures for the Activity in the assay with YAC-1 [2] and in the assay on YAC-1 [3] were 97% and 67%, respectively.
On to `O=C1c2cccnc2S[C@H]2[C@H](O)[C@H](O)[C@H](O)CN12`, for which the inhibition result in the assay with Saccharomyces cerevisiae, with Prunus dulcis and in the assay with Bacillaceae was “inactive” each time. The result with T-cell [1], in the assay on YAC-1 [2], in the assay on YAC-1 [3] and with T-cell [4] was inactive.
As to `O=C1CCS[C@@H]2[C@H](O)[C@H](O)[C@H](O)CN12`, the inhibition result with Saccharomyces cerevisiae, with Prunus dulcis and in the assay with Bacillaceae was “inactive” throughout. Also, the result in the assay on T-cell [1], in the assay with YAC-1 [2], with YAC-1 [3] and in the assay with T-cell [4] was inactive.
`O=C1CCS[C@@H]2[C@@H](O)[C@@H](O)[C@H](O)CN12`: the inhibition result in the assay with Saccharomyces cerevisiae, with Prunus dulcis and with Bacillaceae was “inactive” throughout. The outcome in the assay on T-cell [1], in the assay with YAC-1 [2], with YAC-1 [3] and in the assay with T-cell [4] was inactive.
`O=C1CS[C@@H]2[C@@H](O)[C@@H](O)[C@H](O)CN12`: the inhibition entry in the assay with Saccharomyces cerevisiae, in the assay on Prunus dulcis and in the assay on Bacillaceae was “inactive” throughout. Moreover, the outcome in the assay on T-cell [1], in the assay with YAC-1 [2], with YAC-1 [3] and with T-cell [4] was inactive.
Consider `O=C1c2ccccc2S[C@H]2[C@H](O)[C@H](O)[C@H](O)CN12`, for which the inhibition entry in the assay on Saccharomyces cerevisiae, in the assay with Prunus dulcis and in the assay on Bacillaceae was “inactive” each time. Moreover, the result in the assay with T-cell [1], in the assay on YAC-1 [2], with YAC-1 [3] and with T-cell [4] was inactive.
Take `O=C1c2ccccc2S[C@H]2[C@@H](O)[C@@H](O)[C@H](O)CN12`: the inhibition result in the assay on Saccharomyces cerevisiae, with Prunus dulcis and with Bacillaceae was “inactive” throughout. For the same compound, the result with T-cell [1] and in the assay with T-cell [4] was inactive. In addition, the figures for the Activity in the assay on YAC-1 [2] and in the assay on YAC-1 [3] were 73% and 46%, respectively.
Consider `O=C1CS[C@@H]2[C@H](O)[C@H](O)[C@H](O)CN12`, for which the inhibition entry in the assay on Saccharomyces cerevisiae, in the assay on Prunus dulcis and with Bacillaceae was “inactive” each time. The result in the assay on T-cell [1] and in the assay on T-cell [4] was inactive. Also, the Activity came out at 87% in the assay with YAC-1 [2] and 70% in the assay with YAC-1 [3].
With `O=C1c2cccnc2S[C@@H]2[C@@H](O)[C@@H](O)[C@H](O)CN12`, the inhibition entry with Saccharomyces cerevisiae and with Bacillaceae was “inactive” each time. Moreover, the result in the assay on T-cell [1] and in the assay with T-cell [4] was inactive. The compound further displayed an inhibition in the assay on Prunus dulcis of 19%. For the same compound, the Activity is reported as 81% in the assay on YAC-1 [2] and 55% in the assay with YAC-1 [3].
Consider `O=C1c2cccnc2S[C@@H]2[C@H](O)[C@H](O)[C@H](O)CN12`, for which the inhibition result with Saccharomyces cerevisiae, in the assay on Prunus dulcis and in the assay with Bacillaceae was “inactive” throughout. For the same compound, the result in the assay with T-cell [1] and in the assay with T-cell [4] was inactive. In addition, the Activity with YAC-1 [2] came out at 71%; in the assay with YAC-1 [3], 45%.
